Results on 9 compounds are retold here after patent US20110257210A1, “BENZIMIDAZOLE DERIVATIVES AND THEIR USE FOR MODULATING THE GABAA RECEPTOR COMPLEX” (NEUROSEARCH A/S, priority 2008, published 2011).

This assay has as its target benzodiazepine binding site on GABAA receptors (rat cerebral cortex membranes). Nature of the assay: In vitro inhibition of 3H-flunitrazepam (3H-FNM) binding. The following applies: inhibition of specific binding of 3H-FNM (1 nM), cerebral cortex membranes from male Wistar rats, 40 min at 2° C. As for the experimental part: In Vitro Inhibition of ^3H-flunitrazepam (^3H-FNM) Binding
The GABA recognition site and the benzodiazepine modulatory unit can selectively be labelled with ^3H-flunitrazepam.
Preparations are performed at 0-4° C. unless otherwise indicated. Cerebral cortex from male Wistar rats (150-200 g) is homogenised for 5-10 sec in 20 ml Tris-HCl (30 mM, pH 7.4) using an Ultra-Turrax homogeniser. The suspension is centrifuged at 27,000×g for 15 min and the pellet is washed three times with buffer (centrifuged at 27,000×g for 10 min). The washed pellet is homogenized in 20 ml of buffer and incubated on a water bath (37° C.) for 30 min to remove endogenous GABA and then centrifuged for 10 min at 27,000×g. The pellet is then homogenized in buffer and centrifuged for 10 min at 27,000×g. The final pellet is resuspended in 30 ml buffer and the preparation is frozen and stored at −20° C.
The membrane preparation is thawed and centrifuged at 2° C. for 10 min at 27,000×g. The pellet is washed twice with 20 ml 50 mM Tris-citrate, pH 7.1 using an Ultra-Turrax homogeniser and centrifuged for 10 min at 27,000×g. The final pellet is resuspended in 50 mM Tris-citrate, pH 7.1 (500 ml buffer per g of original tissue), and then used for binding assays. Aliquots of 0.5 ml tissue are added to 25 μl of test solution and 25 μl of ^3H-FNM (1 nM, final concentration), mixed and incubated for 40 min at 2° C. Non-specific binding is determined using Clonazepam (1 μM, final concentration). After incubation the samples are added 5 ml of ice-cold buffer and poured directly onto Whatman GF/C glass fibre filters under suction and immediately washed with 5 ml ice-cold buffer. The amount of radioactivity on the filters is determined by conventional liquid scintillation counting. Specific binding is total binding minus non-specific binding.
25-75% inhibition of specific binding must be obtained, before calculation of an IC50.
The test value will be given as IC50 (the concentration (μM) of the test substance which inhibits the specific binding of ^3H-FNM by 50%).
Co is specific binding in control assays, and
CX is the specific binding in the test assay.
(The calculations assume normal mass-action kinetics).
Take `CC(C)(O)c1ccc2c(c1)ncn2-c1ccc(F)c(-c2cccnc2F)c1` [Compound 7a, 2-{1-[4-Fluoro-3-(2-fluoro-pyridin-3-yl)-phenyl]-1H-benzoimidazol-5-yl}-propan-2-ol]: the IC50 stood at 1.6 nM.

With `CC(C)(O)c1ccc2c(c1)ncn2-c1ccc(F)c(-c2cccnc2Cl)c1` [Compound 7b, 2-{1-[3-(2-Chloro-pyridin-3-yl)-4-fluoro-phenyl]-1H-benzoimidazol-5-yl}-propan-2-ol], the IC50 was determined as 1.9 nM.

For `CC(C)(O)c1ccc2c(c1)ncn2-c1ccc(F)c(-c2ccncc2Cl)c1` [Compound 7c, 2-{1-[3-(3-Chloro-pyridin-4-yl)-4-fluoro-phenyl]-1H-benzoimidazol-5-yl}-propan-2-ol], the IC50 came out at 0.64 nM.

In turn, `COc1ncccc1-c1cc(-n2cnc3cc(C(C)(C)O)ccc32)ccc1F` [Compound 7d, 2-{1-[4-Fluoro-3-(2-methoxy-pyridin-3-yl)-phenyl]-1H-benzoimidazol-5-yl}-propan-2-ol] displayed an IC50 of 0.29 nM. This IC50 lies about 2.2-fold lower than the previous one.

`CC(C)(O)c1ccc2c(c1)ncn2-c1ccc(F)c(-c2ccncc2F)c1` [Compound 7e, 2-{1-[4-Fluoro-3-(3-fluoro-pyridin-4-yl)-phenyl]-1H-benzoimidazol-5-yl}-propan-2-ol] came in with an IC50 of 1.1 nM.

`CC(C)(O)c1ccc2c(c1)ncn2-c1ccc(F)c(-c2ccnc(Cl)c2F)c1` [Compound 7f, 2-{1-[3-(2-Chloro-3-fluoro-pyridin-4-yl)-4-fluoro-phenyl]-1H-benzoimidazol-5-yl}-propan-2-ol] displayed an IC50 of 2.5 nM.

In the case of `CC(C)(O)c1ccc2c(c1)ncn2-c1ccc(F)c(-c2cncc(C#N)c2)c1` [Compound 7g, 5-{2-Fluoro-5-[5-(1-hydroxy-1-methyl-ethyl)-benzoimidazol-1-yl-]-phenyl}-nicotinonitrile], the IC50 was 99 nM. Against the preceding compound, the IC50 is about 40-fold higher.

Compound `COc1ncc(-c2cc(-n3cnc4cc(C(C)(C)O)ccc43)ccc2F)c(OC)n1` [Compound 7h, 2-{1-[3-(2,4-Dimethoxy-pyrimidin-5-yl)-4-fluoro-phenyl]-1H-benzoimidazol-5-yl}-propan-2-ol] had an IC50 of 0.77 nM. Compared with the last compound, the IC50 is about 130-fold lower.

In turn, `CC(C)(O)c1ccc2c(c1)ncn2-c1ccc(F)c(-c2ccncc2C#N)c1` [Compound 7i, 4-{2-Fluoro-5-[5-(1-hydroxy-1-methyl-ethyl)-benzoimidazol-1-yl]-phenyl}-nicotinonitrile] had an IC50 of 1.1 nM.

The term IC50 denotes the concentration needed to halve the response being measured. Low readings indicate inhibition by little substance, high ones a need for much substance.
